Laboratory results as given in the supplement of paper PMC8612539.
In brackets after ≈: the same amount, converted by molar mass.

System: Histophilus somni
Experiment: minimum inhibitory concentration (MIC)
Experimental: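 Broth microdilution MIC (Sensititre BOPO7F bovine plate, CLSI methods) of 19 antimicrobials against field isolates of P. multocida, M. haemolytica, H. somni (deep nasopharyngeal swabs) and E. coli, Enterococcus spp. (rectal swabs) from weaned dairy heifers. Incubation 16-24 h at 35 C. MIC is the lowest concentration preventing visible growth. Values with <= or > lie at the tested range limits. Trimethoprim-sulfamethoxazole is given as the trimethoprim component of a 1:19 mixture.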

CN(C)[C@@H]1C(O)=C(C(N)=O)C(=O)[C@@]2(O)C(O)=C3C(=O)c4c(O)cccc4[C@@](C)(O)[C@H]3C[C@@H]12 [Tetracycline]
Settings	minimum inhibitory concentration [µg/mL]
isolate (source animal id): 3	4 (≈ 9 µM)
isolate (source animal id): 4	4 (≈ 9 µM)
isolate (source animal id): 7	8 (≈ 18 µM)
isolate (source animal id): 14	8 (≈ 18 µM)
isolate (source animal id): 15	4 (≈ 9 µM)
isolate (source animal id): 17	8 (≈ 18 µM)
isolate (source animal id): 18	8 (≈ 18 µM)
isolate (source animal id): 20	4 (≈ 9 µM)
isolate (source animal id): 23	≤ 0.5
isolate (source animal id): 45	> 8
isolate (source animal id): 53	> 8
isolate (source animal id): 83	2 (≈ 4.5 µM)
isolate (source animal id): 88	8 (≈ 18 µM)
isolate (source animal id): 92	8 (≈ 18 µM)
isolate (source animal id): 93	8 (≈ 18 µM)
isolate (source animal id): 99	4 (≈ 9 µM)
isolate (source animal id): 100	4 (≈ 9 µM)
isolate (source animal id): 105	2 (≈ 4.5 µM)
isolate (source animal id): 107	4 (≈ 9 µM)
isolate (source animal id): 108	8 (≈ 18 µM)
isolate (source animal id): 109	4 (≈ 9 µM)
isolate (source animal id): 110	4 (≈ 9 µM)
isolate (source animal id): 117	8 (≈ 18 µM)
isolate (source animal id): 121	8 (≈ 18 µM)
isolate (source animal id): 123	4 (≈ 9 µM)
isolate (source animal id): 124	2 (≈ 4.5 µM)
isolate (source animal id): 127	1 (≈ 2.25 µM)
isolate (source animal id): 128	> 8
isolate (source animal id): 130	2 (≈ 4.5 µM)
isolate (source animal id): 132	> 8
isolate (source animal id): 135	> 8
isolate (source animal id): 140	> 8
isolate (source animal id): 141	≤ 0.5
isolate (source animal id): 142	1 (≈ 2.25 µM)
isolate (source animal id): 144	2 (≈ 4.5 µM)
isolate (source animal id): 146	> 8
isolate (source animal id): 147	1 (≈ 2.25 µM)
isolate (source animal id): 151	> 8
isolate (source animal id): 153	4 (≈ 9 µM)
isolate (source animal id): 154	1 (≈ 2.25 µM)
isolate (source animal id): 156	2 (≈ 4.5 µM)
isolate (source animal id): 157	4 (≈ 9 µM)
isolate (source animal id): 176	4 (≈ 9 µM)
isolate (source animal id): 183	4 (≈ 9 µM)
isolate (source animal id): 186	4 (≈ 9 µM)
isolate (source animal id): 196	4 (≈ 9 µM)
isolate (source animal id): 198	2 (≈ 4.5 µM)
isolate (source animal id): 200	4 (≈ 9 µM)
isolate (source animal id): 206	4 (≈ 9 µM)
isolate (source animal id): 208	4 (≈ 9 µM)
isolate (source animal id): 210	1 (≈ 2.25 µM)
isolate (source animal id): 212	1 (≈ 2.25 µM)
isolate (source animal id): 215	4 (≈ 9 µM)
isolate (source animal id): 216	4 (≈ 9 µM)
isolate (source animal id): 218	2 (≈ 4.5 µM)
isolate (source animal id): 219	2 (≈ 4.5 µM)
isolate (source animal id): 224	4 (≈ 9 µM)
isolate (source animal id): 228	8 (≈ 18 µM)
isolate (source animal id): 230	4 (≈ 9 µM)
isolate (source animal id): 233	> 8
isolate (source animal id): 238	≤ 0.5
isolate (source animal id): 239	> 8
isolate (source animal id): 241	4 (≈ 9 µM)
isolate (source animal id): 242	4 (≈ 9 µM)
isolate (source animal id): 243	≤ 0.5
isolate (source animal id): 245	> 8
isolate (source animal id): 246	≤ 0.5
isolate (source animal id): 247	4 (≈ 9 µM)
isolate (source animal id): 248	≤ 0.5
isolate (source animal id): 250	8 (≈ 18 µM)
isolate (source animal id): 251	> 8
isolate (source animal id): 252	4 (≈ 9 µM)
isolate (source animal id): 254	4 (≈ 9 µM)
isolate (source animal id): 258	4 (≈ 9 µM)
isolate (source animal id): 259	4 (≈ 9 µM)
isolate (source animal id): 262	> 8
isolate (source animal id): 264	1 (≈ 2.25 µM)
isolate (source animal id): 265	> 8
isolate (source animal id): 266	2 (≈ 4.5 µM)
isolate (source animal id): 267	2 (≈ 4.5 µM)
isolate (source animal id): 269	1 (≈ 2.25 µM)
isolate (source animal id): 271	2 (≈ 4.5 µM)
isolate (source animal id): 272	> 8
isolate (source animal id): 274	> 8
isolate (source animal id): 276	≤ 0.5
isolate (source animal id): 278	2 (≈ 4.5 µM)
isolate (source animal id): 280	> 8
isolate (source animal id): 281	2 (≈ 4.5 µM)
isolate (source animal id): 283	2 (≈ 4.5 µM)
isolate (source animal id): 288	4 (≈ 9 µM)
isolate (source animal id): 291	8 (≈ 18 µM)
isolate (source animal id): 292	2 (≈ 4.5 µM)
isolate (source animal id): 296	1 (≈ 2.25 µM)
isolate (source animal id): 306	2 (≈ 4.5 µM)
isolate (source animal id): 336	2 (≈ 4.5 µM)
isolate (source animal id): 337	2 (≈ 4.5 µM)
isolate (source animal id): 341	1 (≈ 2.25 µM)

CC[C@H]1OC(=O)C[C@@H](O)[C@H](C)[C@@H](O[C@@H]2O[C@H](C)[C@@H](O[C@H]3C[C@@](C)(O)[C@@H](O)[C@H](C)O3)[C@H](N(C)C)[C@H]2O)[C@@H](CC=O)C[C@@H](C)C(=O)/C=C/C(C)=C/[C@@H]1CO[C@@H]1O[C@H](C)[C@@H](O)[C@@H](OC)[C@H]1OC [Tylosin]
Settings	minimum inhibitory concentration [µg/mL]
isolate (source animal id): 3	8 (≈ 8.73 µM)
isolate (source animal id): 4	8 (≈ 8.73 µM)
isolate (source animal id): 7	8 (≈ 8.73 µM)
isolate (source animal id): 14	8 (≈ 8.73 µM)
isolate (source animal id): 15	8 (≈ 8.73 µM)
isolate (source animal id): 17	8 (≈ 8.73 µM)
isolate (source animal id): 18	8 (≈ 8.73 µM)
isolate (source animal id): 20	8 (≈ 8.73 µM)
isolate (source animal id): 23	2 (≈ 2.18 µM)
isolate (source animal id): 45	16 (≈ 17.5 µM)
isolate (source animal id): 53	16 (≈ 17.5 µM)
isolate (source animal id): 83	4 (≈ 4.37 µM)
isolate (source animal id): 88	8 (≈ 8.73 µM)
isolate (source animal id): 92	8 (≈ 8.73 µM)
isolate (source animal id): 93	8 (≈ 8.73 µM)
isolate (source animal id): 99	4 (≈ 4.37 µM)
isolate (source animal id): 100	8 (≈ 8.73 µM)
isolate (source animal id): 105	4 (≈ 4.37 µM)
isolate (source animal id): 107	8 (≈ 8.73 µM)
isolate (source animal id): 108	4 (≈ 4.37 µM)
isolate (source animal id): 109	8 (≈ 8.73 µM)
isolate (source animal id): 110	8 (≈ 8.73 µM)
isolate (source animal id): 117	4 (≈ 4.37 µM)
isolate (source animal id): 121	8 (≈ 8.73 µM)
isolate (source animal id): 123	8 (≈ 8.73 µM)
isolate (source animal id): 124	8 (≈ 8.73 µM)
isolate (source animal id): 127	8 (≈ 8.73 µM)
isolate (source animal id): 128	8 (≈ 8.73 µM)
isolate (source animal id): 130	2 (≈ 2.18 µM)
isolate (source animal id): 132	8 (≈ 8.73 µM)
isolate (source animal id): 135	8 (≈ 8.73 µM)
isolate (source animal id): 140	8 (≈ 8.73 µM)
isolate (source animal id): 141	4 (≈ 4.37 µM)
isolate (source animal id): 142	> 32
isolate (source animal id): 144	8 (≈ 8.73 µM)
isolate (source animal id): 146	4 (≈ 4.37 µM)
isolate (source animal id): 147	> 32
isolate (source animal id): 151	8 (≈ 8.73 µM)
isolate (source animal id): 153	16 (≈ 17.5 µM)
isolate (source animal id): 154	> 32
isolate (source animal id): 156	> 32
isolate (source animal id): 157	16 (≈ 17.5 µM)
isolate (source animal id): 176	32 (≈ 34.9 µM)
isolate (source animal id): 183	16 (≈ 17.5 µM)
isolate (source animal id): 186	32 (≈ 34.9 µM)
isolate (source animal id): 196	8 (≈ 8.73 µM)
isolate (source animal id): 198	8 (≈ 8.73 µM)
isolate (source animal id): 200	8 (≈ 8.73 µM)
isolate (source animal id): 206	8 (≈ 8.73 µM)
isolate (source animal id): 208	16 (≈ 17.5 µM)
isolate (source animal id): 210	8 (≈ 8.73 µM)
isolate (source animal id): 212	4 (≈ 4.37 µM)
isolate (source animal id): 215	8 (≈ 8.73 µM)
isolate (source animal id): 216	16 (≈ 17.5 µM)
isolate (source animal id): 218	8 (≈ 8.73 µM)
isolate (source animal id): 219	8 (≈ 8.73 µM)
isolate (source animal id): 224	8 (≈ 8.73 µM)
isolate (source animal id): 228	16 (≈ 17.5 µM)
isolate (source animal id): 230	32 (≈ 34.9 µM)
isolate (source animal id): 233	16 (≈ 17.5 µM)
isolate (source animal id): 238	2 (≈ 2.18 µM)
isolate (source animal id): 239	16 (≈ 17.5 µM)
isolate (source animal id): 241	16 (≈ 17.5 µM)
isolate (source animal id): 242	16 (≈ 17.5 µM)
isolate (source animal id): 243	16 (≈ 17.5 µM)
isolate (source animal id): 245	16 (≈ 17.5 µM)
isolate (source animal id): 246	8 (≈ 8.73 µM)
isolate (source animal id): 247	16 (≈ 17.5 µM)
isolate (source animal id): 248	4 (≈ 4.37 µM)
isolate (source animal id): 250	16 (≈ 17.5 µM)
isolate (source animal id): 251	32 (≈ 34.9 µM)
isolate (source animal id): 252	16 (≈ 17.5 µM)
isolate (source animal id): 254	16 (≈ 17.5 µM)
isolate (source animal id): 258	8 (≈ 8.73 µM)
isolate (source animal id): 259	8 (≈ 8.73 µM)
isolate (source animal id): 262	8 (≈ 8.73 µM)
isolate (source animal id): 264	4 (≈ 4.37 µM)
isolate (source animal id): 265	4 (≈ 4.37 µM)
isolate (source animal id): 266	8 (≈ 8.73 µM)
isolate (source animal id): 267	4 (≈ 4.37 µM)
isolate (source animal id): 269	4 (≈ 4.37 µM)
isolate (source animal id): 271	8 (≈ 8.73 µM)
isolate (source animal id): 272	4 (≈ 4.37 µM)
isolate (source animal id): 274	8 (≈ 8.73 µM)
isolate (source animal id): 276	8 (≈ 8.73 µM)
isolate (source animal id): 278	4 (≈ 4.37 µM)
isolate (source animal id): 280	4 (≈ 4.37 µM)
isolate (source animal id): 281	8 (≈ 8.73 µM)
isolate (source animal id): 283	4 (≈ 4.37 µM)
isolate (source animal id): 288	8 (≈ 8.73 µM)
isolate (source animal id): 291	8 (≈ 8.73 µM)
isolate (source animal id): 292	8 (≈ 8.73 µM)
isolate (source animal id): 296	4 (≈ 4.37 µM)
isolate (source animal id): 306	8 (≈ 8.73 µM)
isolate (source animal id): 336	8 (≈ 8.73 µM)
isolate (source animal id): 337	8 (≈ 8.73 µM)
isolate (source animal id): 341	8 (≈ 8.73 µM)
